15 compounds from patent US7750000B2, “Substituted imidazo[1,2b]pyridazines as kinase inhibitors, their preparation and use as medicaments” (Bayer Schering Pharma AG, priority 2005, dated 2010) can be followed below.

A value given as a limit tells only on which side of the number the result lay.

Assay [1] addresses PKC theta (Homo sapiens, UniProt Q04759). In words: Inhibition of PKC theta. It is filed as biochemical.
The test system of assay [2] is interleukin 2 (IL-2) secretion of peripheral blood mononuclear cells (PBMC). In words: Antibody-induced (anti-CD3/anti-CD28) IL-2 secretion in PBMC, ELISA. It is filed as cell-based. As to conditions: human PBMC, anti-CD3/anti-CD28 stimulation; for IC50: 20 hours, read-out: IC50 (concentration for 50% inhibition of IL-2). How it is done:
The extent to which test substance influence antibody-induced interleukin 2 (IL-2) secretion was investigated in the following test system. IL-2 represents a central cytokine which is produced and released by activated T cells. IL-2 synthesis in the T cells is regulated by a plurality of kinases. An inhibitory effect of substances on kinases leads inter alia to inhibition of IL-2 synthesis and inhibition of the T cell immune response. The cytokine determinations were carried out using an ELISA kit.
Peripheral blood mononuclear cells (PBMC) were isolated from heparinized human whole blood by gradient centrifugation using Histopaque 1077 (Sigma) at room temperature, and the erythrocytes were lyzed hypotonically and, after washing twice in PBS, taken up in cell culture medium (10% fetal inactivated calf serum in RPMI-1640+Glutamax-I [Gibco]).
The 96 well culture plates (Costar) were previously incubated with 100 μl of antibody solution in PBS 0.1 μg/ml in PBS [Gibco]) per well at 4° C. for 18 hours. The antibodies used were anti-CD3 and anti-CD28 monoclonal antibodies (PharMingen). After washing with PBS three times, the plates were charged with 200 μl of the cell suspension (40 000 cells/well). […]
The cultures were incubated in an incubator at 37° C. for 20 hours. After this incubation, the plates were briefly shaken and centrifuged, and […] of supernatant were removed, and the supernatants were then frozen at −20° C.
Interleukin-2 was determined using an ELISA kit (Bioscience), and the absorption of the color change was analyzed in a SpectraMax 340 PC (wavelength 450 nm). Active substances brought about a reduction in the absorption.

PKC theta, sequence (Q04759 whole entry): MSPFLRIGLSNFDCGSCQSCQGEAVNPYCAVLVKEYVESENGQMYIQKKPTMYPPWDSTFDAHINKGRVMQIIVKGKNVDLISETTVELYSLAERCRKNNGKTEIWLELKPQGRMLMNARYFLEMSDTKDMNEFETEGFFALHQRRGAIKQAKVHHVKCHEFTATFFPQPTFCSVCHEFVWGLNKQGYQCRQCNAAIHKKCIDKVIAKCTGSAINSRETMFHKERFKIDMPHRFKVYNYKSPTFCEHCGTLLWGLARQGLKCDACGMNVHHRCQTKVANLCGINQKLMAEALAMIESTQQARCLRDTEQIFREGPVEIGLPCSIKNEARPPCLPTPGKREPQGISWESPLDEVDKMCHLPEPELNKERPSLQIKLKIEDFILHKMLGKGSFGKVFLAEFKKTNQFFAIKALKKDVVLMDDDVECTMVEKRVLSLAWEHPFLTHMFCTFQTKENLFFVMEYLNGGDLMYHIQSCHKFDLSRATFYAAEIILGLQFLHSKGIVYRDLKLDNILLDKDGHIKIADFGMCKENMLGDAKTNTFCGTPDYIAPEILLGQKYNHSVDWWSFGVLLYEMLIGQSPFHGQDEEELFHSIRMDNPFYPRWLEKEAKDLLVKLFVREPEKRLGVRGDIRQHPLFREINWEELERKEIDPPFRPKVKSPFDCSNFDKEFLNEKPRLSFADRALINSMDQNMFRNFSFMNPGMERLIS

As to `c1ccc(-c2cnc3ccc(NCCCn4ccnc4)nn23)cc1` [KE1322-002-a], the IC50 worked out at 12.9 µM in assay [1] and 1.7 µM in assay [2].
On to `Cc1[nH]ncc1CCCNc1ccc2ncc(-c3ccccc3)n2n1` [KE1322-006-a], for which the IC50 in assay [1] is 11.3 µM; in assay [2] it was 2 µM.
Consider `CCN(CC)CCCC(C)Nc1ccc2ncc(-c3ccccc3)n2n1` (stereo not drawn) [KE1322-010-a], for which the IC50 in assay [1] amounted to 5.4 µM; in assay [2] it was 1.1 µM.
Turning to `CCN(CC)CCCNc1ccc2ncc(-c3ccccc3)n2n1` [KE1322-011-a], the IC50 was 5.5 µM in assay [1] and 2.6 µM in assay [2].
In the case of `Clc1cccc(-c2cnc3ccc(NCCCn4ccnc4)nn23)c1` [KE1322-014-a], the IC50 in assay [1] is 7.2 µM; in assay [2], 1.1 µM.
For `CCN(CC)CCCC(C)Nc1ccc2ncc(-c3cccc(Cl)c3)n2n1` (stereo not drawn) [KE1322-022-a], the IC50 in assay [1] amounted to 0.22 µM; in assay [2], 0.29 µM.
As to `CCN(CC)CCCNc1ccc2ncc(-c3cccc(Cl)c3)n2n1` [KE1322-023-a], the figures for the IC50 in assay [1] and in assay [2] were 0.25 µM and 0.21 µM, respectively.
`Clc1cccc(-c2cnc3ccc(NCCN4CCCC4)nn23)c1` [KE1322-024-a]: the values for the IC50 in assay [1] and in assay [2] were 1.7 µM and 1 µM, respectively.
On to `Cn1cc(-c2cnc3ccc(NCC4CCCCC4)nn23)cn1` [KE1322-028-a], for which, in assay [1], the IC50 came out at 7 µM.
With `Cc1[nH]ncc1CCCNc1ccc2ncc(-c3cnn(C)c3)n2n1` [KE1322-030-a], the IC50 is 7.2 µM in assay [1] and 0.7 µM in assay [2].
Take `Cc1[nH]ncc1CCCNc1ccc2ncc(-c3ccsc3)n2n1` [KE1322-042-a]: the IC50 came out at 13 µM in assay [1] and 0.4 µM in assay [2].
Compound `c1ccc(-c2cnc3ccc(NCCCN4CCCC4)nn23)cc1` [OP 3070] gave an IC50 in assay [1] of 6.1 µM. Further, in assay [2], the inhibition at 10 µM was over 95% and the IC50 came out at 1.4 µM.
The like results for `c1ccc(-c2cnc3ccc(NCCCN4CCOCC4)nn23)cc1` [OP 3071] were, in that order, 17 µM, over 95% and 2.5 µM.
`Clc1cccc(-c2cnc3ccc(NCCCN4CCCC4)nn23)c1` [OP 3073]: the IC50 in assay [1] is 0.25 µM. In assay [2], the inhibition at 10 µM is over 95% and the IC50 turned out to be 0.21 µM.
As to `Clc1cccc(-c2cnc3ccc(NCCCN4CCOCC4)nn23)c1` [OP 3074], the IC50 in assay [1] was determined as 0.41 µM. Further, in assay [2], the inhibition at 10 µM was over 95% and the IC50 was found to be 0.92 µM.
